{"source": "paper PMC4225842", "about": "(2014)", "key": {"[1]": {"tested_on": "R13.2 (DNA, aptamer) TGTACCGTCTGAGCGATTCGTACTGTGGGCACCAATCGTACCCAATACTTGCGAATCAGCCAGTCAGTGTTAAGGAGTGC", "test": "competitive elution of labelled DNA from bromacil beads, fluorescence", "conditions": "100 mM NaCl, 2 mM MgCl2, 20 mM Tris-HCl, 0.01% methanol, 1 μM free compound"}, "[2]": {"tested_on": "R13.2 (DNA, aptamer) TGTACCGTCTGAGCGATTCGTACTGTGGGCACCAATCGTACCCAATACTTGCGAATCAGCCAGTCAGTGTTAAGGAGTGC", "test": "fluorescence saturation binding on magnetic beads", "conditions": "100 mM NaCl, 2 mM MgCl2; immobilised compound (biotinylated bromacil on streptavidin beads); 20 mM Tris-HCl; 5 min"}}}
{"molecule": "CCC(C)n1c(=O)[nH]c(C)c(Br)c1=O", "note": "(stereo not shown)", "values": [{"measurement": "binding", "setting": "[1]; 100 nM DNA, 0.51 ± 0.16 RFU (blank -0.0045)", "result": "yes"}, {"measurement": "Kd", "setting": "[2]", "result": "9.6 ± 7.8", "unit": "nM"}]}
{"molecule": "CCNc1nc(Cl)nc(NC(C)C)n1", "values": [{"measurement": "binding", "setting": "[1]; 0.22 ± 0.15 RFU against 0.51 for bromacil", "result": "weak"}]}
{"molecule": "Cn1ccc(=O)[nH]c1=O", "values": [{"measurement": "binding", "setting": "[1]; 0.28 ± 0.09 RFU against 0.51 for bromacil", "result": "weak"}]}
